Type in all cases: functional
The subject of experiment [1] is Acanthocheilonema viteae. Description: Compound was tested in vivo for anti-filarial activity against A. viteae through oral route of administration at 200 mg/kg for 5 days and macrofilaricidal response was observed.
Experiment [2] has as its system Acanthocheilonema viteae. Description: Compound was tested in vivo for anti-filarial activity against A. viteae through oral route of administration at 200 mg/kg for 5 days and microfilaricidal response was observed.
Experiment [3] concerns Acanthocheilonema viteae. Description: Compound was tested in vivo for anti-filarial activity against A. viteae through oral route of administration at 200 mg/kg for 5 days and sterilization of female worms was observed.
For experiment [4], the system named is Acanthocheilonema viteae. Description: Compound was tested in vivo for anti-filarial activity against A. viteae through oral route of administration at 200 mg/kg for 5 days and sterilization of inactive worms was observed.

The values below come from ChEMBL document CHEMBL1133387, “Secondary amines as new pharmacophores for macrofilaricidal drug design” (2000).

In the case of `CCCCCCNc1ccccc1`, the values for the Reduction in the experiment on Acanthocheilonema viteae [1] and in the experiment on Acanthocheilonema viteae [2] were 50% and 58%, respectively. For the same compound, the Activity in the experiment on Acanthocheilonema viteae [3] turned out to be 0%.

Turning to `CCCCCCCNc1ccccc1`, the Reduction came out at 0% with Acanthocheilonema viteae [1] and 69% with Acanthocheilonema viteae [2]. In the experiment with Acanthocheilonema viteae [3], this compound displayed an Activity of 0%.

Consider `CCCCNc1ccc(F)c(Cl)c1`, for which the figures for the Reduction in the experiment on Acanthocheilonema viteae [1] and with Acanthocheilonema viteae [2] were 0% and 32%, respectively. Moreover, the Activity in the experiment on Acanthocheilonema viteae [4] was found to be 0%.

Turning to `CCCCCCNc1ccc(F)cc1`, the Reduction in the experiment with Acanthocheilonema viteae [1] is listed as 50%; in the experiment with Acanthocheilonema viteae [2], 0%. For the same compound, the Activity in the experiment with Acanthocheilonema viteae [3] is on record as 0%.

Regarding `CCCCCCNc1ccc(F)c(Cl)c1`, the Reduction with Acanthocheilonema viteae [1] was 88%; in the experiment on Acanthocheilonema viteae [2], 50%. Besides, the Activity in the experiment with Acanthocheilonema viteae [3] is 0%.

In the case of `CCCCN(CCCC)C1CCCCC1`, the Reduction with Acanthocheilonema viteae [1] worked out at 0%; in the experiment with Acanthocheilonema viteae [2], 93%. In the experiment on Acanthocheilonema viteae [3], this compound yielded an Activity of 50%.

For the compound `CCCCCCNC1CCCCC1`, the Reduction in the experiment with Acanthocheilonema viteae [1] amounted to 100%; in the experiment on Acanthocheilonema viteae [2], 0%. Further, in the experiment with Acanthocheilonema viteae [3], the Activity is given as 0%.

`CCCCN(CCCC)c1ccc(F)cc1`: the Reduction in the experiment with Acanthocheilonema viteae [1] turned out to be 0%; in the experiment on Acanthocheilonema viteae [2], 81%. Also, the Activity in the experiment on Acanthocheilonema viteae [4] was 50%.

As to `CCCCN(CCCC)c1ccccc1`, the figures for the Reduction in the experiment on Acanthocheilonema viteae [1] and with Acanthocheilonema viteae [2] were 0% and 77%, respectively. Also, in the experiment with Acanthocheilonema viteae [4], the Activity is listed as 55%.
